{"source": "paper PMC7403315", "about": "“Cyclic peptide FXII inhibitor provides safe anticoagulation in a thrombosis model and in artificial lungs” (Nature Communications, 2020)", "format_in_all_cases": "biochemical", "key": {"Mouse α-FXIIa": {"molecular_target": "T1, Mouse α-FXIIa (Mus musculus, UniProt Q80YC5)", "T1 construct": "Mouse α-FXIIa; purchased Molecular Innovations MFXIIA", "T1 sequence (Q80YC5 355-597 limits assumed)": "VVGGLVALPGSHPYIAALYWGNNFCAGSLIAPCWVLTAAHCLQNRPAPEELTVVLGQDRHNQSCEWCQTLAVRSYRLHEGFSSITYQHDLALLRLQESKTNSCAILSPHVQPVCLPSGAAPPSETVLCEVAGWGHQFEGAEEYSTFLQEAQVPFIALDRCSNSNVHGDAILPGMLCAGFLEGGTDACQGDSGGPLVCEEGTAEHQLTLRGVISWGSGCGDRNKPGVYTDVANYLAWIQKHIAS", "T1 sequence (Q80YC5 20-354 limits assumed)": "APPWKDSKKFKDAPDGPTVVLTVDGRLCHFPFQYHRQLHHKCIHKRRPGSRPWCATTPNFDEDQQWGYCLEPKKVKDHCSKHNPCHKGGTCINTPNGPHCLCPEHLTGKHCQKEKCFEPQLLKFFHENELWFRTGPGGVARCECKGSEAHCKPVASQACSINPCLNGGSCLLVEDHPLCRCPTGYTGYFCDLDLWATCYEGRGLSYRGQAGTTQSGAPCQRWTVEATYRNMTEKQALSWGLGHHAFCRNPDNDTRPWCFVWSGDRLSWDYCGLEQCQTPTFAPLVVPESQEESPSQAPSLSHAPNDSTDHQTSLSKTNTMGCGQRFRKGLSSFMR", "test": "FXIIa protease inhibition assay with fluorogenic substrate Boc-Gln-Gly-Arg-AMC", "protocol": "(§1) In order to test the inhibitory activity of peptides without prior purification, we developed the following method. […] After solid-phase peptide synthesis, cleavage, and ether precipitation, the peptides were chemically cyclized and their Ki values were determined in a FXIIa activity assay using a fluorogenic substrate.\n(§2) Protease inhibition assays\n(§3) The inhibitory activity of peptides was determined by measuring the residual protease activity with a fluorogenic substrate. The assay was performed in buffer containing 10 mM Tris-Cl, pH […]\n(§4) 1% (v/v) DMSO in a volume of 150 µl. FXIIa activity was measured with the fluorogenic substrate Boc-Gln-Gly-Arg-AMC (Bachem) at a final concentration of 50 µM. Mouse α-FXIIa (Molecular Innovations cat # MFXIIA) and human β-FXIIa (Molecular Innovations cat # HFXIIAB) were used at final concentrations of 0.4 nM. The reaction was pipetted as follows: 50 µl of bicyclic peptide in assay buffer were added to 50 µl of FXIIa in assay buffer and incubated for 10 minutes at 25°C before 50 µl of 150 µM fluorogenic substrate in assay buffer were added to measure the residual protease activity with an Infinite M200Pro fluorescence plate reader (excitation at 368 nm, emission at 467 nm; Tecan) for a period of 30 minutes with a read every minute at 25°C. The Tecan software i-control (version 1.1) was used for data analysis. Stock solutions of 1 mM bicyclic peptide were prepared by either dissolving the unpurified cyclization reaction with water or by dissolving purified and lyophilized peptide in water. The bicyclic peptides were serially diluted two-fold using assay buffer. Sigmoidal curves were fitted to the data using the following dose response equation (1), wherein x = peptide concentration, y = % protease activity, and p = Hill slope. IC50 values were derived from the fitted curve.\n(§5) The inhibition constants (Ki) were calculated according to the equation of Cheng and Prusoff, Ki = IC50/(1+([S]0/Km), wherein IC50 is the functional strength of the inhibitor, [S]0 is the total substrate concentration, and Km is the Michaelis-Menten constant. […]\n(§6) the substrate Boc-Gln-Gly-Arg-AMC. […]"}, "human β-FXIIa": {"molecular_target": "T2, human β-FXIIa (Homo sapiens, UniProt P00748)", "T2 construct": "human β-FXIIa (Molecular Innovations cat #); purchased Molecular Innovations HFXIIAB; host or cells: human blood", "T2 sequence (P00748 373-615 limits assumed, other chains not shown)": "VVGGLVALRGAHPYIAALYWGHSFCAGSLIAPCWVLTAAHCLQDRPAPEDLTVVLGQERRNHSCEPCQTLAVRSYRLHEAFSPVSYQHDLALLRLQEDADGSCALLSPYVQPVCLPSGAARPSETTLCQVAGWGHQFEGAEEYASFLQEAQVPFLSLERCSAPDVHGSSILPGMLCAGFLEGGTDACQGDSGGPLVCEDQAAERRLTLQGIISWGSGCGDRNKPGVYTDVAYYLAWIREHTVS", "test": "FXIIa protease inhibition assay with fluorogenic substrate Boc-Gln-Gly-Arg-AMC", "protocol": "as §1, §2, §3, §4, §5, §6"}, "Recombinant mouse FXII": {"molecular_target": "T3, Recombinant mouse FXII (Mus musculus, UniProt Q80YC5)", "T3 sequence (Q80YC5 355-597 limits assumed)": "T1 sequence (Q80YC5 355-597 limits assumed)", "T3 sequence (Q80YC5 20-354 limits assumed)": "T1 sequence (Q80YC5 20-354 limits assumed)", "test": "Inhibition of recombinant FXIIa (rFXIIa)", "conditions": "read-out: Residual activity (%), Recombinant mouse FXII, individual plates"}}, "note": "“And” between values parts separate entries of the source, which are not always exact repeats. Identical values can stand only once. Starred links: 1 amine or outer side, 2 acyl side, 3 side chain; linkers in the order of their positions; H or OH if unused. Positions of bridges follow the written chain, without caps; N, C: chain ends. Non-standard residues stand in square brackets, D forms with d. Residues, ends and D or L forms follow the SMILES beside them. TATA = O=C(CC[*:1])N1CN(C(=O)CC[*:2])CN(C(=O)CC[*:3])C1; Phe(4-F) = N[C@@H](Cc1ccc(F)cc1)C(=O)O; β3hR = N=C(N)NCCC[C@H](N)CC(=O)O", "data": [{"smiles": "CC(C)C[C@@H]1NC(=O)[C@H](CCC(N)=O)NC(=O)[C@H](Cc2c[nH]cn2)NC(=O)[C@@H]2CSCCC(=O)N3CN(CN(C3)C(=O)CCSC[C@H](NC(=O)[C@@H](CO)NC(=O)[C@H](N)CCCNC(=N)N)C(=O)N[C@@H](Cc3ccc(F)cc3)C(=O)N[C@@H](CCCNC(=N)N)C(=O)N[C@@H](CC(C)C)C(=O)N3CCC[C@H]3C(=O)N2)C(=O)CCSC[C@@H](C(N)=O)NC(=O)C[C@H](CCCNC(=N)N)NC1=O", "note": "[FXII900] (H-[dR][dS]C[Phe(4-F)]RLPCHQL[β3hR]C-NH2; linker 3-8-13 via TATA)", "values": [{"measurement": "Ki", "setting": "Mouse α-FXIIa", "result": "0.45 ± 0.11", "unit": "nM"}, {"measurement": "Ki", "setting": "human β-FXIIa", "result": "0.37 ± 0.04", "unit": "nM"}, {"measurement": "Residual activity of human FXIIa", "setting": "human β-FXIIa; inhibitor 0.030518 nM, 30.52 pM", "result": 89.8015, "unit": "%"}, {"measurement": "Residual activity of human FXIIa", "setting": "human β-FXIIa; inhibitor 0.03125 nM, 31.25 pM", "result": "91.2184% and 98.3306%"}, {"measurement": "Residual activity of human FXIIa", "setting": "human β-FXIIa; inhibitor 0.061035 nM, 61.04 pM", "result": 87.3761, "unit": "%"}, {"measurement": "Residual activity of human FXIIa", "setting": "human β-FXIIa; inhibitor 0.0625 nM, 62.5 pM", "result": "92.1225% and 95.5725%"}, {"measurement": "Residual activity of human FXIIa", "setting": "human β-FXIIa; inhibitor 0.12207 nM, 0.00012207 µM", "result": 78.5763, "unit": "%"}, {"measurement": "Residual activity of human FXIIa", "setting": "human β-FXIIa; inhibitor 0.125 nM, 0.000125 µM", "result": "82.8895% and 92.0812%"}, {"measurement": "Residual activity of human FXIIa", "setting": "human β-FXIIa; inhibitor 0.244141 nM, 0.000244141 µM", "result": 65.9451, "unit": "%"}, {"measurement": "Residual activity of human FXIIa", "setting": "human β-FXIIa; inhibitor 0.488281 nM, 0.000488281 µM", "result": 44.4485, "unit": "%"}, {"measurement": "Residual activity of human FXIIa", "setting": "human β-FXIIa; inhibitor 0.5 nM, 0.0005 µM", "result": "54.1096% and 47.3759%"}, {"measurement": "Residual activity of human FXIIa", "setting": "human β-FXIIa; inhibitor 1 nM, 0.001 µM", "result": "29.6346% and 29.527%"}, {"measurement": "Residual activity of human FXIIa", "setting": "human β-FXIIa; inhibitor 1.95312 nM, 0.00195312 µM", "result": "9.983% and 4.833%"}, {"measurement": "Residual activity of human FXIIa", "setting": "human β-FXIIa; inhibitor 2 nM, 0.002 µM", "result": "13.0658% and 11.4779%"}, {"measurement": "Residual activity of human FXIIa", "setting": "human β-FXIIa; inhibitor 3.90625 nM, 0.00390625 µM", "result": "2.681% and 0.3074%"}, {"measurement": "Residual activity of human FXIIa", "setting": "human β-FXIIa; inhibitor 4 nM, 0.004 µM", "result": "2.623% and 4.603% and 9.7%"}, {"measurement": "Residual activity of human FXIIa", "setting": "human β-FXIIa; inhibitor 7.8125 nM, 0.0078125 µM", "result": "1.017% and -0.1178%"}, {"measurement": "Residual activity of human FXIIa", "setting": "human β-FXIIa; inhibitor 8 nM, 0.008 µM", "result": "0.8848% and 2.033% and 3.493%"}, {"measurement": "Residual activity of human FXIIa", "setting": "human β-FXIIa; inhibitor 15.625 nM, 0.015625 µM", "result": "1.594% and 0.3357%"}, {"measurement": "Residual activity of human FXIIa", "setting": "human β-FXIIa; inhibitor 0.976562 / 0.976563 nM, 0.000976563 µM", "result": 20.4026, "unit": "%"}, {"measurement": "remaining activity at 30.52 pM", "setting": "human β-FXIIa; read-out: Residual activity of human FXIIa, inhibitor 0.030518 nM", "result": 92.8, "unit": "%"}, {"measurement": "remaining activity at 31.25 pM", "setting": "human β-FXIIa; read-out: Residual activity of human FXIIa, inhibitor 0.03125 nM", "result": 90.7, "unit": "%"}, {"measurement": "remaining activity at 61.04 pM", "setting": "human β-FXIIa; read-out: Residual activity of human FXIIa, inhibitor 0.061035 nM", "result": 102, "unit": "%"}, {"measurement": "remaining activity at 62.5 pM", "setting": "human β-FXIIa; read-out: Residual activity of human FXIIa, inhibitor 0.0625 nM", "result": 89.8, "unit": "%"}, {"measurement": "remaining activity at 0.00012207 µM", "setting": "human β-FXIIa; read-out: Residual activity of human FXIIa, inhibitor 0.12207 nM", "result": 77.3, "unit": "%"}, {"measurement": "remaining activity at 0.000125 µM", "setting": "human β-FXIIa; read-out: Residual activity of human FXIIa, inhibitor 0.125 nM", "result": 80.4, "unit": "%"}, {"measurement": "remaining activity at 0.000244141 µM", "setting": "human β-FXIIa; read-out: Residual activity of human FXIIa, inhibitor 0.244141 nM", "result": 66.6, "unit": "%"}, {"measurement": "remaining activity at 0.000488281 µM", "setting": "human β-FXIIa; read-out: Residual activity of human FXIIa, inhibitor 0.488281 nM", "result": 51.8, "unit": "%"}, {"measurement": "remaining activity at 0.0005 µM", "setting": "human β-FXIIa; read-out: Residual activity of human FXIIa, inhibitor 0.5 nM", "result": 46.7, "unit": "%"}, {"measurement": "remaining activity at 0.001 µM", "setting": "human β-FXIIa; read-out: Residual activity of human FXIIa, inhibitor 1 nM", "result": 24.6, "unit": "%"}, {"measurement": "remaining activity at 0.002 µM", "setting": "human β-FXIIa; read-out: Residual activity of human FXIIa, inhibitor 2 nM", "result": 8.92, "unit": "%"}, {"measurement": "remaining activity at 0.03125 µM", "setting": "human β-FXIIa; read-out: Residual activity of human FXIIa, inhibitor 31.25 nM", "result": 0, "unit": "%"}, {"measurement": "remaining activity at 0.000976563 µM", "setting": "human β-FXIIa; read-out: Residual activity of human FXIIa, inhibitor 0.976562 / 0.976563 nM", "result": 29.9, "unit": "%"}, {"measurement": "remaining activity at 30.52 pM", "setting": "Recombinant mouse FXII; peptide 0.030518 nM", "result": 94.5, "unit": "%"}, {"measurement": "remaining activity at 61.04 pM", "setting": "Recombinant mouse FXII; peptide 0.061035 nM", "result": 95, "unit": "%"}, {"measurement": "remaining activity at 0.00012207 µM", "setting": "Recombinant mouse FXII; peptide 0.12207 nM", "result": 85.5, "unit": "%"}, {"measurement": "remaining activity at 0.000244141 µM", "setting": "Recombinant mouse FXII; peptide 0.244141 nM", "result": 77.6, "unit": "%"}, {"measurement": "remaining activity at 0.000488281 µM", "setting": "Recombinant mouse FXII; peptide 0.488281 nM", "result": 61.6, "unit": "%"}, {"measurement": "remaining activity at 0.000976563 µM", "setting": "Recombinant mouse FXII; peptide 0.976563 nM", "result": 37.8, "unit": "%"}, {"measurement": "remaining activity at 0.00195312 µM", "setting": "Recombinant mouse FXII; peptide 1.95312 nM", "result": 15.3, "unit": "%"}, {"measurement": "remaining activity at 0.0078125 µM", "setting": "Recombinant mouse FXII; peptide 7.8125 nM", "result": 0.768, "unit": "%"}, {"measurement": "remaining activity at 0.015625 µM", "setting": "Recombinant mouse FXII; peptide 15.625 nM", "result": 0, "unit": "%"}, {"measurement": "remaining activity at 0.03125 µM", "setting": "Recombinant mouse FXII; peptide 31.25 nM", "result": 0, "unit": "%"}]}]}
